Laboratory results: ChEMBL document CHEMBL4507284, “Data for DCP probe BI-1230” (2021)

Key:
[1] = target: Ribosomal protein S6 kinase alpha-1 (Homo sapiens) (UniProt Q15418); conditions: Compound concentration 1000.0 nM
[2] = target: Cyclin-dependent kinase 11B (Homo sapiens) (UniProt P21127); conditions: Compound concentration 1000.0 nM
[3] = target: Mitogen-activated protein kinase 6 (Homo sapiens) (UniProt Q16659); conditions: Compound concentration 1000.0 nM
[4] = target: Serine/threonine-protein kinase 17A (Homo sapiens) (UniProt Q9UEE5); conditions: Compound concentration 1000.0 nM
[5] = target: Mitogen-activated protein kinase kinase kinase kinase 5 (Homo sapiens) (UniProt Q9Y4K4); conditions: Compound concentration 1000.0 nM
[6] = target: Misshapen-like kinase 1 (Homo sapiens) (UniProt Q8N4C8); conditions: Compound concentration 1000.0 nM
[7] = target: Mitogen-activated protein kinase kinase kinase 3 (Homo sapiens) (UniProt Q99759); conditions: Compound concentration 1000.0 nM
[8] = system: Hepatocyte growth factor receptor (Homo sapiens), P08581 [M1250T]; conditions: Compound concentration 1000.0 nM
[9] = target: Aurora kinase A (Homo sapiens) (UniProt O14965); conditions: Compound concentration 1000.0 nM
[10] = system: Tyrosine-protein kinase ABL1 (Homo sapiens), P00519 [Y253F]; conditions: Compound concentration 1000.0 nM
[11] = system: Tyrosine-protein kinase ABL1 (Homo sapiens), P00519 [F317I]; conditions: Compound concentration 1000.0 nM
[12] = target: Wee1-like protein kinase 2 (Homo sapiens) (UniProt P0C1S8); conditions: Compound concentration 1000.0 nM
[13] = target: Serine/threonine-protein kinase DCLK3 (Homo sapiens) (UniProt Q9C098); conditions: Compound concentration 1000.0 nM
[14] = target: Phosphorylase b kinase gamma catalytic chain, skeletal muscle/heart isoform (Homo sapiens) (UniProt Q16816); conditions: Compound concentration 1000.0 nM
[15] = target: Serine/threonine-protein kinase 17B (Homo sapiens) (UniProt O94768); conditions: Compound concentration 1000.0 nM
[16] = target: Interleukin-1 receptor-associated kinase 1 (Homo sapiens) (UniProt P51617); conditions: Compound concentration 1000.0 nM
[17] = target: Proto-oncogene tyrosine-protein kinase receptor Ret (Homo sapiens) (UniProt P07949); conditions: Compound concentration 1000.0 nM
[18] = target: Aurora kinase C (Homo sapiens) (UniProt Q9UQB9); conditions: Compound concentration 1000.0 nM
[19] = target: Calcium/calmodulin-dependent protein kinase type 1 (Homo sapiens) (UniProt Q14012); conditions: Compound concentration 1000.0 nM
[20] = target: Muscarinic acetylcholine receptor M2 (Homo sapiens) (UniProt P08172); conditions: Compound concentration 10.0 uM
[21] = target: BMP-2-inducible protein kinase (Homo sapiens) (UniProt Q9NSY1); conditions: Compound concentration 1000.0 nM
[22] = target: Tyrosine-protein kinase Fyn (Homo sapiens) (UniProt P06241); conditions: Compound concentration 1000.0 nM
[23] = system: Tyrosine-protein kinase ABL1 (Homo sapiens), P00519 [Q252H]; conditions: Compound concentration 1000.0 nM
[24] = target: MAP kinase-activated protein kinase 2 (Homo sapiens) (UniProt P49137); conditions: Compound concentration 1000.0 nM
[25] = target: Phosphatidylinositol 4,5-bisphosphate 3-kinase catalytic subunit beta isoform (Homo sapiens) (UniProt P42338); conditions: Compound concentration 1000.0 nM
[26] = target: Ribosomal protein S6 kinase alpha-5 (Homo sapiens) (UniProt O75582); conditions: Compound concentration 1000.0 nM
[27] = target: Testis-specific serine/threonine-protein kinase 1 (Homo sapiens) (UniProt Q9BXA7); conditions: Compound concentration 1000.0 nM
[28] = target: Ephrin type-A receptor 2 (Homo sapiens) (UniProt P29317); conditions: Compound concentration 1000.0 nM
[29] = target: Serine/threonine-protein kinase MRCK alpha (Homo sapiens) (UniProt Q5VT25); conditions: Compound concentration 1000.0 nM
[30] = target: Sodium-dependent noradrenaline transporter (Homo sapiens) (UniProt P23975); conditions: Compound concentration 10.0 uM
[31] = target: Proto-oncogene tyrosine-protein kinase ROS (Homo sapiens) (UniProt P08922); conditions: Compound concentration 1000.0 nM
[32] = target: Dual specificity mitogen-activated protein kinase kinase 2 (Homo sapiens) (UniProt P36507); conditions: Compound concentration 1000.0 nM
[33] = target: Interleukin-1 receptor-associated kinase 3 (Homo sapiens) (UniProt Q9Y616); conditions: Compound concentration 1000.0 nM
[34] = system: Tyrosine-protein kinase ABL1 (Homo sapiens), P00519 [M351T]; conditions: Compound concentration 1000.0 nM
[35] = target: Serine/threonine-protein kinase VRK2 (Homo sapiens) (UniProt Q86Y07); conditions: Compound concentration 1000.0 nM
[36] = target: Tyrosine-protein kinase JAK1 (Homo sapiens) (UniProt P23458); conditions: Compound concentration 1000.0 nM
[37] = target: Cyclin-dependent kinase 11A (Homo sapiens) (UniProt Q9UQ88); conditions: Compound concentration 1000.0 nM
[38] = target: Cyclin-dependent kinase 17 (Homo sapiens) (UniProt Q00537); conditions: Compound concentration 1000.0 nM
[39] = target: Muscarinic acetylcholine receptor M4 (Homo sapiens) (UniProt P08173); conditions: Compound concentration 10.0 uM
[40] = target: Cyclin-dependent kinase 5 (Homo sapiens) (UniProt Q00535); conditions: Compound concentration 1000.0 nM
[41] = target: 5'-AMP-activated protein kinase catalytic subunit alpha-1 (Homo sapiens) (UniProt Q13131); conditions: Compound concentration 1000.0 nM
[42] = target: Serine/threonine-protein kinase B-raf (Homo sapiens) (UniProt P15056); conditions: Compound concentration 1000.0 nM
[43] = target: Alpha-2C adrenergic receptor (Homo sapiens) (UniProt P18825); conditions: Compound concentration 10.0 uM
[44] = system: Phosphatidylinositol 4,5-bisphosphate 3-kinase catalytic subunit alpha isoform (Homo sapiens), P42336 [C420R]; conditions: Compound concentration 1000.0 nM
[45] = target: Casein kinase I isoform delta (Homo sapiens) (UniProt P48730); conditions: Compound concentration 1000.0 nM

Sequence of 5'-AMP-activated protein kinase catalytic subunit alpha-1 (Homo sapiens) (Q13131 whole entry, looked up): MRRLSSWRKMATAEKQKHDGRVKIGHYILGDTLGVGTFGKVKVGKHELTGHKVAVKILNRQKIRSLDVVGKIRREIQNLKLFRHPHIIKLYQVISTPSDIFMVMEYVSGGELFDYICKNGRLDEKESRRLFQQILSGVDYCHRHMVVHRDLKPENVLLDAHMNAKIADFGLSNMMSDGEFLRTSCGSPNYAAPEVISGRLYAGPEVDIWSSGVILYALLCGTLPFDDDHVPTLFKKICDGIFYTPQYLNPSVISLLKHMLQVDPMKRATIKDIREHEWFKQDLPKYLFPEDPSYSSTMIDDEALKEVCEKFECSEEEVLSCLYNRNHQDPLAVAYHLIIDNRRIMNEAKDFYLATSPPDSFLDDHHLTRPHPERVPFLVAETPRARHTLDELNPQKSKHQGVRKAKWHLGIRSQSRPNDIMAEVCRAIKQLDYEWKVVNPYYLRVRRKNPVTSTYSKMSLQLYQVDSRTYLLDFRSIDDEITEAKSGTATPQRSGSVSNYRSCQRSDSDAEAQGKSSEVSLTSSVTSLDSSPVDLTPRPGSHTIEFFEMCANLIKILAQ
Sequence of Cyclin-dependent kinase 17 (Homo sapiens) (Q00537 whole entry, looked up): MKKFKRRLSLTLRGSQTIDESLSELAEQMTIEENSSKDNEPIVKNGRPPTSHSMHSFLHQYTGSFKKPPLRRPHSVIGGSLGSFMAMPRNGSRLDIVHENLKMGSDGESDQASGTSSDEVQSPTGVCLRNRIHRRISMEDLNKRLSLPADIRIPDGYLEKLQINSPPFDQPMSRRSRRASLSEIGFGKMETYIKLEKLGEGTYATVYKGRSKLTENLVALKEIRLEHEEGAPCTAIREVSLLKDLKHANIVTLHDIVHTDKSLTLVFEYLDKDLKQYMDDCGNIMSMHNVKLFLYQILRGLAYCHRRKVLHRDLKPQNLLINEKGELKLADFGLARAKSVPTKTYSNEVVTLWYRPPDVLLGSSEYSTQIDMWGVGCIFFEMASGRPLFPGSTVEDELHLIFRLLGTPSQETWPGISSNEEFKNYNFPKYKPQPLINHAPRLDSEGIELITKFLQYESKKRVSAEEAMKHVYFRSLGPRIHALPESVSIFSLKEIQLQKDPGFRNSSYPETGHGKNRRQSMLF
Sequence of Muscarinic acetylcholine receptor M2 (Homo sapiens) (P08172 whole entry): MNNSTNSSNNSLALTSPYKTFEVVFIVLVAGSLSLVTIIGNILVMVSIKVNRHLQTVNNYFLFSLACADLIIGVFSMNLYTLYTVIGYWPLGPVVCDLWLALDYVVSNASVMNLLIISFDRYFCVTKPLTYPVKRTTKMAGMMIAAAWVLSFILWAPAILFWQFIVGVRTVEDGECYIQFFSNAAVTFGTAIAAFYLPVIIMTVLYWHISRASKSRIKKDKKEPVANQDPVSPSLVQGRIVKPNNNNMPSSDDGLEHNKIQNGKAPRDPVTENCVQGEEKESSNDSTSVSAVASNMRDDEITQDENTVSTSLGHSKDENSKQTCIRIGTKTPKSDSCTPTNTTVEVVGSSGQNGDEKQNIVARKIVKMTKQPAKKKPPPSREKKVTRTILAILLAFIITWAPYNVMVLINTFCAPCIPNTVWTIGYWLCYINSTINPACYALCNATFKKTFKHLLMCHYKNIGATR
Sequence of Mitogen-activated protein kinase kinase kinase kinase 5 (Homo sapiens) (Q9Y4K4 whole entry, looked up): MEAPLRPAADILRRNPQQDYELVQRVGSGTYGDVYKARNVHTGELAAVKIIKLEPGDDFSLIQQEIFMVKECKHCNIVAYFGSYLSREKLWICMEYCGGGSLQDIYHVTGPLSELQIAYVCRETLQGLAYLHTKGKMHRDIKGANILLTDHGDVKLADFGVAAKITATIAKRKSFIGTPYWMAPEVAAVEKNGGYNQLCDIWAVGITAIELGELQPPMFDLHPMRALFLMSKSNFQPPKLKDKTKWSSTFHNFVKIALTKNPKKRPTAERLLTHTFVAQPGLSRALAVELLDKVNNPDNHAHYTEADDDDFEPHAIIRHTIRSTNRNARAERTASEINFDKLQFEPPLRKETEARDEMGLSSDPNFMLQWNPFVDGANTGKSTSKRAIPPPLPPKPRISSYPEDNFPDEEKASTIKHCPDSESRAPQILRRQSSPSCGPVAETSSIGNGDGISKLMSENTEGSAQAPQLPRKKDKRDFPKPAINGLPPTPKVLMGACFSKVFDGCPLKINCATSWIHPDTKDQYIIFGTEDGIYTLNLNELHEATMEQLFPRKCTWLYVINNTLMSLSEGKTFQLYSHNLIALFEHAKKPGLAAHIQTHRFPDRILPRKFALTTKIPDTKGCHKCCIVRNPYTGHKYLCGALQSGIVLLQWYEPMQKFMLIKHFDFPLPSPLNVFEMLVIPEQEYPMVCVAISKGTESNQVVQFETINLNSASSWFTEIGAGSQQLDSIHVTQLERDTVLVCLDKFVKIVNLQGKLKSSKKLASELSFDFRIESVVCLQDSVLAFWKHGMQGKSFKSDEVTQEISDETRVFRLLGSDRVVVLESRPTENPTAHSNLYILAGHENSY
Sequence of Mitogen-activated protein kinase kinase kinase 3 (Homo sapiens) (Q99759 whole entry): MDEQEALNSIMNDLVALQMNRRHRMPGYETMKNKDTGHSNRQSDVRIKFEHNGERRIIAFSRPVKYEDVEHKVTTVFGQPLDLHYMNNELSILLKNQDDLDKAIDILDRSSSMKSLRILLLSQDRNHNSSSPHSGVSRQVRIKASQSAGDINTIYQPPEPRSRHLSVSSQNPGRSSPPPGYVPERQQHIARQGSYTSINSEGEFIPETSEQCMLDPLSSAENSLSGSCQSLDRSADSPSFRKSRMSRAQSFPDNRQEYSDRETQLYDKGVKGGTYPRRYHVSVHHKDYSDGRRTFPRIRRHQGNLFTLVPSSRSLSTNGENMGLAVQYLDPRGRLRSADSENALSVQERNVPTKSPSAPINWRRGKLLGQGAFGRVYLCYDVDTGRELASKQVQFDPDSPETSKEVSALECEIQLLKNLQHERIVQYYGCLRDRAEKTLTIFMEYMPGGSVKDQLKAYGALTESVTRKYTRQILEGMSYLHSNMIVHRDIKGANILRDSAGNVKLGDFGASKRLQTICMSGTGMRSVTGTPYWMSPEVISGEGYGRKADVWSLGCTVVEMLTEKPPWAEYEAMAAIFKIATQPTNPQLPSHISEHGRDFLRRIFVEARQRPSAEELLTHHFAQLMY
Sequence of Ribosomal protein S6 kinase alpha-5 (Homo sapiens) (O75582 whole entry, looked up): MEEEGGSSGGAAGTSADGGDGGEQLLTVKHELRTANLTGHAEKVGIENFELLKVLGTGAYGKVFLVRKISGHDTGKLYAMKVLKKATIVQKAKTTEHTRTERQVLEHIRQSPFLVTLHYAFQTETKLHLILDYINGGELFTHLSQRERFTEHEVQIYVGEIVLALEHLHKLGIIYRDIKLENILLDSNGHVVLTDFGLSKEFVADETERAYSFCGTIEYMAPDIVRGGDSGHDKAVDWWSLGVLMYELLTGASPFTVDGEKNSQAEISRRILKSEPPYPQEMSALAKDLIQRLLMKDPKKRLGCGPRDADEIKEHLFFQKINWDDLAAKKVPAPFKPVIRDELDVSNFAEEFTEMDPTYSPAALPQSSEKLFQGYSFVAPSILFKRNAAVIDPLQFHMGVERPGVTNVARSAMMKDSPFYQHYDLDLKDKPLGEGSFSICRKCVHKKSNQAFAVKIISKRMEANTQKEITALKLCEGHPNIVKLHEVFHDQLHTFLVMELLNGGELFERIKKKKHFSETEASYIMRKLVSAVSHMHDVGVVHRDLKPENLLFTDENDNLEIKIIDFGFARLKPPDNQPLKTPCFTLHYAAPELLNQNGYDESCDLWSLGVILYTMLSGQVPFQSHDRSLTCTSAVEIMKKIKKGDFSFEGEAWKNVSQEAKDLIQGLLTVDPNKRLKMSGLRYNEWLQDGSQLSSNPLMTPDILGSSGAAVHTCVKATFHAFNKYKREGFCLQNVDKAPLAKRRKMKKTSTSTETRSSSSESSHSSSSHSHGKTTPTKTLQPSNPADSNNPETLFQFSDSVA
Sequence of Serine/threonine-protein kinase B-raf (Homo sapiens) (P15056 whole entry): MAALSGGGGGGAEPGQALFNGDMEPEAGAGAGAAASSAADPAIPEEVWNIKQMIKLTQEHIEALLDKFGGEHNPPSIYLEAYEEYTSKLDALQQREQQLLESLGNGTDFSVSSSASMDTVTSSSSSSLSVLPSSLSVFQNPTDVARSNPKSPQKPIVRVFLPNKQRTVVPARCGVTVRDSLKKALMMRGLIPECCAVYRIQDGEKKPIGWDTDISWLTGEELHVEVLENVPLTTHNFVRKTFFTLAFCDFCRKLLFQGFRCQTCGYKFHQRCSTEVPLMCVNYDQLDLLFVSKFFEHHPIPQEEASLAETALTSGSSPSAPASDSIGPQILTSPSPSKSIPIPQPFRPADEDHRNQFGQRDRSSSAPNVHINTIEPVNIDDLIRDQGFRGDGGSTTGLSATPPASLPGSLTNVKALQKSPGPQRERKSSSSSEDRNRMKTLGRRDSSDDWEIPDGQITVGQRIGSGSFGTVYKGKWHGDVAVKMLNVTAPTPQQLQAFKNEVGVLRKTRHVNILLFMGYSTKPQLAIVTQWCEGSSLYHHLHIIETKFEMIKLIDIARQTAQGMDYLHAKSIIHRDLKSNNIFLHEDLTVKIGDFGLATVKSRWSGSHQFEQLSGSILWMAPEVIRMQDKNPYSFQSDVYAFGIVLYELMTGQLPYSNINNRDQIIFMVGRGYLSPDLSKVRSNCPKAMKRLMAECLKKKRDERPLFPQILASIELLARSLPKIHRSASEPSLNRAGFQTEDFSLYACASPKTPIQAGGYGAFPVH
Sequence of Dual specificity mitogen-activated protein kinase kinase 2 (Homo sapiens) (P36507 whole entry): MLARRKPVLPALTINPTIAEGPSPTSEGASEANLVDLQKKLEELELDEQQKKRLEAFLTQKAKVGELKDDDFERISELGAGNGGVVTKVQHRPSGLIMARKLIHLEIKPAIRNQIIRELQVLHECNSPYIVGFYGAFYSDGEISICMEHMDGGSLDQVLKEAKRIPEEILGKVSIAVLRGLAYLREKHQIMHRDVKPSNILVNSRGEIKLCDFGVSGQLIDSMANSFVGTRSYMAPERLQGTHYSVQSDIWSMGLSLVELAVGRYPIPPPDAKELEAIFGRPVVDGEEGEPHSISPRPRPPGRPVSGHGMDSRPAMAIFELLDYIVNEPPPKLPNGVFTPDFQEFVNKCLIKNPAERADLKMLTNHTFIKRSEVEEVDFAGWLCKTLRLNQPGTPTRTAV

## COc1ccc2c(O[C@@H]3C[C@H]4C(=O)N[C@]5(C(=O)O)CC5/C=C\CCCCC[C@H](NC(=O)OC5CCCC5)C(=O)N4C3)cc(-c3csc(NC(=O)C(C)C)n3)nc2c1C (stereo not given in full) [BI 1230]
[1]
  residual activity: 74%
[2]
  residual activity: 99%
[3]
  residual activity: 93%
[4]
  residual activity: 99%
[5]
  residual activity: 100%
[6]
  residual activity: 62%
[7]
  residual activity: 79%
[8]
  residual activity: 100%
[9]
  residual activity: 69%
[10]
  residual activity: 87%
[11]
  residual activity: 76%
[12]
  residual activity: 100%
[13]
  residual activity: 96%
[14]
  residual activity: 96%
[15]
  residual activity: 88%
[16]
  residual activity: 69%
[17]
  residual activity: 91%
[18]
  residual activity: 96%
[19]
  residual activity: 100%
[20]
  inhibition: 3.22%
[21]
  residual activity: 90%
[22]
  residual activity: 100%
[23]
  residual activity: 80%
[24]
  residual activity: 60%
[25]
  residual activity: 62%
[26]
  residual activity: 100%
[27]
  residual activity: 70%
[28]
  residual activity: 80%
[29]
  residual activity: 100%
[30]
  inhibition: -4.46%
[31]
  residual activity: 100%
[32]
  residual activity: 77%
[33]
  residual activity: 97%
[34]
  residual activity: 90%
[35]
  residual activity: 79%
[36]
  residual activity: 75%
[37]
  residual activity: 99%
[38]
  residual activity: 100%
[39]
  inhibition: 10.2%
[40]
  residual activity: 97%
[41]
  residual activity: 100%
[42]
  residual activity: 86%
[43]
  inhibition: 56.8%
[44]
  residual activity: 100%
[45]
  residual activity: 100%

## O=C(N[C@H]1CCCCC/C=C\C2C[C@@]2(C(=O)O)NC(=O)[C@@H]2C[C@@H](Oc3ccncc3)CN2C1=O)OC1CCCC1 (stereo not given in full) [BI 1675]
[1]
  residual activity: 100%
[2]
  residual activity: 100%
[3]
  residual activity: 92%
[4]
  residual activity: 100%
[5]
  residual activity: 100%
[6]
  residual activity: 100%
[7]
  residual activity: 89%
[8]
  residual activity: 92%
[9]
  residual activity: 92%
[10]
  residual activity: 100%
[11]
  residual activity: 96%
[12]
  residual activity: 100%
[13]
  residual activity: 100%
[14]
  residual activity: 88%
[15]
  residual activity: 69%
[16]
  residual activity: 88%
[17]
  residual activity: 94%
[18]
  residual activity: 92%
[19]
  residual activity: 87%
[20]
  inhibition: -1.71%
[21]
  residual activity: 96%
[22]
  residual activity: 100%
[23]
  residual activity: 85%
[24]
  residual activity: 89%
[25]
  residual activity: 100%
[26]
  residual activity: 78%
[27]
  residual activity: 77%
[28]
  residual activity: 71%
[29]
  residual activity: 87%
[30]
  inhibition: -6.94%
[31]
  residual activity: 92%
[32]
  residual activity: 87%
[33]
  residual activity: 72%
[34]
  residual activity: 89%
[35]
  residual activity: 100%
[36]
  residual activity: 89%
[37]
  residual activity: 88%
[38]
  residual activity: 89%
[39]
  inhibition: 9.48%
[40]
  residual activity: 77%
[41]
  residual activity: 100%
[42]
  residual activity: 100%
[43]
  inhibition: -4.47%
[44]
  residual activity: 100%
[45]
  residual activity: 81%
